Test results taken from US11795200B2, “Nano small peptide and its use in preparation of drugs for treating and preventing fundus vascular diseases” (FUTU Biotech Co., Ltd., priority 2021, dated 2023).
Where two headings read alike, the source gives them in different places. Non-standard residues stand in square brackets, D forms with d. Residues, ends and D or L forms follow the SMILES beside them. No end group written: not given here. *: point of attachment. Palmitoyl = CCCCCCCCCCCCCCCC(=O)*

Tests used:
[1] = system: primary mouse brain microvascular pericytes; assay: sSema4D-induced pericyte migration (transwell experiment); format: cell-based; conditions: 36 h; for sSema4D-induced pericyte migration: 20 μM, sSema4D 1600 ng/mL
Description: The primary mouse brain microvascular pericytes were starved with 0.5% PM for 4 to 6 h. The pericytes were seeded in the upper layer of a 24-well transwell chamber (8 μm). The medium containing FH (20 μM), FG (20 μM), and Sema4D neutralizing antibody (BMA-12) (2 μg/μL) (the concentration of sSema4D in the medium is 1600 ng/mL) was added to the lower chamber, and an equal volume of DMSO was added as control. The cells were incubated in a 5% CO2 incubator at 37° C. for 36 h. 36 h later, the cells on the bottom of the chamber were fixed with 4% paraformaldehyde and stained with crystal violet, and the pericytes that penetrated to the bottom of the chamber were counted under a microscope.

[2] = In vivo imaging of small animals, entry into vitreous humor; conditions: eye drops (10 μL, 20 μM, three times) and vitreous injection (1 μl, 20 μM)
Description: (§1) 10 μL of FH and FG eye drops (with the concentration of 20 μM, the solvent therein was artificial tears) were instilled on the eyeball surface of mice (8-week-old C57 male mice), once at an interval of 1 h. One hour after the third eye drop, the mice were anesthetized to have cardiac perfusion, the eyeballs of the mice were taken out, the connective tissue on the eye surface was trimmed, and the eyeballs were washed with PBS solution for several times to remove the nano eye drops from the surface of the eyeballs. The eyeball was placed in a small animal imager (at emission wavelength of 535 nm and excitation wavelength of 490 nm) for image acquisition.

[3] = system: endothelial cells (primary endothelial cells of mouse brain microvessels); assay: CCK8 cytotoxicity assay; conditions: 20 μM; 12, 14, and 36 h
OIR model mice = assay: Evans blue leakage test, fundus vascular leakage; format: in vivo, mouse; conditions: for vascular leakage of the fundus: 2 nmol injected into the vitreous; for treatment effect on vascular leakage compared with anti-Sema4D: 2 nmol vs 1 μg BMA-12, intravitreal
sSema4D [4] = molecular target: T1, sSema4D (Mus musculus, UniProt O09126); assay: Reduction of sSema4D concentration in a simple medium system (ELISA); format: biochemical; set-up: the free Sema4D protein after enzyme cleavage of Sema4D; purchased R&D Systems; conditions: for sSema4D concentration: medium with 1600 ng/mL sSema4D, FH, FG 20 μM, BMA-12 2 μg/μL
T1 sequence (O09126 24-733 limits assumed): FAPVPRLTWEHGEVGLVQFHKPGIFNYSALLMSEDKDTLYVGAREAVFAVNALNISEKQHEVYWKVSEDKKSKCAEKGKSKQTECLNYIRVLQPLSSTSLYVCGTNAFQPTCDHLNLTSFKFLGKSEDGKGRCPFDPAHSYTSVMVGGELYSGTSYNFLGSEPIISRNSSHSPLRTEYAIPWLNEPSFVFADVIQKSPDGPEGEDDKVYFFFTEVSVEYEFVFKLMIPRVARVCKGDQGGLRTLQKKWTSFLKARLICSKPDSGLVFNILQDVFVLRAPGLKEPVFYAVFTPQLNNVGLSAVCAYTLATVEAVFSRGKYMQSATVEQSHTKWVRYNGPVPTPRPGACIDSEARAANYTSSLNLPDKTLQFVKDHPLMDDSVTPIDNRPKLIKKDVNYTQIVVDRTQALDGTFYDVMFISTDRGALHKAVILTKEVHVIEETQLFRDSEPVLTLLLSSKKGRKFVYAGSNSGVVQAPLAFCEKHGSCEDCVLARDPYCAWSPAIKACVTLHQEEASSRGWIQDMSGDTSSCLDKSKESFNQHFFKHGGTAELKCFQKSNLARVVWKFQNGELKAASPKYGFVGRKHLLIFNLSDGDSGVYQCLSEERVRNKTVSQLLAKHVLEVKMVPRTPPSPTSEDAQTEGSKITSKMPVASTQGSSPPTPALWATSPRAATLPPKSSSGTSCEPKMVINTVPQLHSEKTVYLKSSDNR
Description: The nano small peptides FH, FG, DMSO, and Sema4D neutralizing antibody (BMA-12) were added to the medium (the concentration of sSema4D in the medium was 1600 ng/mL) to ensure that the final concentration of FH and FG was 20 μM, and the final concentration of the Sema4D neutralizing antibody (BMA-12) (BMA-12, i.e., anti-Sema4D) was 2 μg/μL, an equal volume of DMSO was then added as a control, and culture plates were set still at 37° C. for 12, 24, 36, and 48 h, and the culture medium was collected, and the expression of Sema4D protein in the supernatant was detected using an ELISA kit (Shanghai Yuanmu Biotechnology Co., Ltd.).

sSema4D [5] = molecular target: T1, sSema4D; assay: ELISA of sSema4D in vitreous humor after eye drops; format: in vivo; set-up: from tissue; host or cells: vitreous humor of C57 mice; conditions: eye drops 10 μL of 20 μM, twice daily, 3 days
Source text: In this example, 8-week-old C57 male mice were used, with ten data points in each group, and each data point was the average of the experimental results of 5 mice.
The water on the eyeballs was then removed with filter paper to release and collect the vitreous humor. ELISA kit (Shanghai Yuanmu Biotechnology Co., Ltd.) was used to detect the expression of sSema4D protein in vitreous humor.
Control group was instilled with the same volume of PBS solution; vehicle group was instilled the same volume of artificial tears (Systane).

[6] = mouse, in vivo
Description: as §1

Row | Compound | inhibition of pericyte migration compared with BMA-12 ([1]; 20 μM vs BMA-12 2 μg/μL) | sSema4D-induced pericyte migration [1] | entry into the vitreous humor of mice [2] | toxic effects on endothelial cells [3] | vascular leakage of the fundus (OIR model mice) | treatment effect on vascular leakage compared with anti-Sema4D (OIR model mice) | sSema4D concentration (sSema4D [4]; 24 h) | sSema4D concentration (sSema4D [4]; 36 h) | effect on sSema4D concentration, FH compared with FG (sSema4D [4]; within the same action time, 20 μM) | expression of sSema4D protein in the vitreous humor (sSema4D [5]) | entry into the vitreous humor of mice [6]
1 | CCCCCCCCCCCCCCCC(=O)N[C@H](Cc1ccccc1)C(=O)N[C@@H](Cc1ccccc1)C(=O)N[C@H](C(=O)N[C@@H](CC(C)C)C(=O)N[C@@H](CCCCN)C(=O)N[C@@H](CCCCN)C(=O)N[C@@H](CCC(N)=O)C(=O)N[C@@H](CCCCN)C(=O)N[C@@H](CCCNC(=N)N)C(=O)N1CCC[C@H]1C(=O)N[C@@H](CCCNC(=N)N)C(=O)N[C@@H](Cc1c[nH]cn1)C(=O)O)C(C)C [FH] (Palmitoyl-[dF]FVLKKQKRPRH-OH) | more effective in inhibiting pericyte migration than Sema4D neutralizing antibody (BMA-12) | can significantly inhibit the sSema4D-induce pericyte migration | entered the vitreous humor of mice | did not cause toxic effects | can inhibit vascular leakage of the fundus | comparable to that of anti-Sema4D | can reduce the sSema4D concentration | can still reduce the sSema4D concentration | better than that of FG | reduce the expression of sSema4D protein in the vitreous humor | –
2 | Palmitoyl-FFVLKKNKAAKG [FG] | – | can significantly inhibit the sSema4D-induce pericyte migration | – | – | can inhibit vascular leakage of the fundus | comparable to that of anti-Sema4D | can reduce the sSema4D concentration | can still reduce the sSema4D concentration | – | reduce the expression of sSema4D protein in the vitreous humor | entered the vitreous humor of mice
